Measurements reported in patent publication US12570606B2, “Myeloperoxidase imaging agents” (The General Hospital Corporation, priority 2016, dated 2026).

Assays:
MPO activity = assay: Irritant contact dermatitis (PMA) in vivo FRI; set-up: species or system mouse; conditions: wildtype mice
Description: Female C57Bl/6J (wildtype, Jackson laboratories, Bar Harbor, Me.) and MPO-knockout (KO, Jackson laboratories) mice were treated topically with 0.08 μmol Phorbol 12-myristate 13-acetate (PMA, Sigma, St. Louis, Mo.) on one hind-paw and with vehicle on the other to induce irritant contact dermatitis. This model is well described in the literature and triggers rapid inflammation with influx of neutrophils into the skin. 6 hours after induction, mice were injected intravenously with either 2 nmol of Compound 3 or the non-specific analogue, Compound 18. 1 hour later, 2.5 μg SA-647 was injected intravenously to bind to the biotinylated Compound 3. Mice underwent in vivo imaging using a dedicated in vivo FRI system as described above in Example 11.

MPO [1] = molecular target: T1, MPO (Homo sapiens, UniProt P05164); assay: MPO-PET matrigel implantation imaging in mice; format: in vivo, mouse; conditions: for Background, organ uptake and defluorination: matrigel PET imaging in mice
T1 sequence (P05164 49-745): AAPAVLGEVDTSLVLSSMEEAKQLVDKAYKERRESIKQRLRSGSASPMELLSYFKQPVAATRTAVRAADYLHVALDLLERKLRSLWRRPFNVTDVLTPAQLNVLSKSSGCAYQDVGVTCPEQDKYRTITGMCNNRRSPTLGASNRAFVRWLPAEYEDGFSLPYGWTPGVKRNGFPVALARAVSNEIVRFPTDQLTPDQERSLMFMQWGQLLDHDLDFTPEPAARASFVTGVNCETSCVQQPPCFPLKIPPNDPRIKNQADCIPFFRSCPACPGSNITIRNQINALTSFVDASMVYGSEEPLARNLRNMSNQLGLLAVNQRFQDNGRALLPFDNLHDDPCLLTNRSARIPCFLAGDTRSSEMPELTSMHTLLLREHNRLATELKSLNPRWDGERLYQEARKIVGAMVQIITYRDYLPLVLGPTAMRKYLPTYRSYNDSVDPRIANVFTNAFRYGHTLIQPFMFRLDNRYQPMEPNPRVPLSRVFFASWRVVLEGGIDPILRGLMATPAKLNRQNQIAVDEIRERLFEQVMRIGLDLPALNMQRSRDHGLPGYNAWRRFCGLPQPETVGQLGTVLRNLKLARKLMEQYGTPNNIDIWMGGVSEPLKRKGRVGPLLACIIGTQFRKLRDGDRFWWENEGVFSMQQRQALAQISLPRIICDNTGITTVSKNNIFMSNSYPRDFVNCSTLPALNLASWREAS
Description: 300 μL of 1:1 mixture of matrigel and minimal essential medium (MEM) containing GOX and/or different concentrations of MPO (0, 15 μL, 30 μL) was injected subcutaneously into the ventral aspect of the thighs of the mouse. After 30 min, 300-600 μCi of MPO Compound 9 was injected intravenously. After 2 h, the mice were scanned using PET scanning.
To validate the efficacy of the MPO PET agents for in vivo applications, matrigel implantation experiments were performed by embedding MPO in matrigel along with glucose oxidase (GOX) as H2O2 donor. Matrigel is a gelatinous protein mixture that is liquid at 0° C. but forms a gel at body temperature while remaining diffusible to molecules from the bloodstream when injected into living animals (see e.g., Chen et al, Radiology, 2006, 240(2):473-481). The MPO/matrigel mixtures were injected subcutaneously to the thighs of the mice followed by injection of the MPO PET tracers 30 min later. […] The signal of MPO side was around 1.7 fold higher compared to that of control side.
To verify the specificity of Compound 9 over MPO, different concentrations of MPO (0, 15 μL, 30 μL) were embedded in matrigel for the implantation experiments.

MPO [2] = molecular target: T2, MPO (Mus musculus, UniProt P11247); assay: CFA paw inflammation PET imaging and treatment by MPO inhibitor PF-1355; format: in vivo; set-up: from tissue; host or cells: inflamed forepaw of living mice (CFA)
T2 sequence (P11247 139-718): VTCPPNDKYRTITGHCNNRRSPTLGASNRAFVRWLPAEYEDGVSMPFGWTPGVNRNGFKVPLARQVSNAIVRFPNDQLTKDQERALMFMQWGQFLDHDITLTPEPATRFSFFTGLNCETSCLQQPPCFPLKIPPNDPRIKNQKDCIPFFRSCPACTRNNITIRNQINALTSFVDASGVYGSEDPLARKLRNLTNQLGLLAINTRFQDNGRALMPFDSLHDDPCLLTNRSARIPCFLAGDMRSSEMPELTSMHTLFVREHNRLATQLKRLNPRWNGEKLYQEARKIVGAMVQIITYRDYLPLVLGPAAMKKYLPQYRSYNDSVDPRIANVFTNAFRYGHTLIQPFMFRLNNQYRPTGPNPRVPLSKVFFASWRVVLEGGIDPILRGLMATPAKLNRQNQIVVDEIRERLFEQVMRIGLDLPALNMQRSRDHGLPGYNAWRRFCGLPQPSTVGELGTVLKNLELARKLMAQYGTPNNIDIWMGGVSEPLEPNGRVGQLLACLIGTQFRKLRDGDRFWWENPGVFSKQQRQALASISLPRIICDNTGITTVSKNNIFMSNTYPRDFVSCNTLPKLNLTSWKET
Description: Each pair contained one treated and one untreated, number of pairs, n=3. The 1/1 emulsion of CFA/PBS (40 μL) was injected subcutaneously on the dorsal side of one forepaw under isoflurane anesthesia, and PBS (40 μL) was injected on the other forepaw as control. After 1 h, the treated group was given PF-1355 (50 mg/kg) by gavage, then treated every 6 h for another 3 times, and the control group was treated with vehicle (10 mL/kg) accordingly. After 24 h, 300-600 uCi of Compound 9 was injected intravenously. After another 2 h, each pair of the mice was scanned side by side.
After validating the efficacy of the MPO Compound 9 in matrigel experiments, the specificity of the agent in inflammation was investigated. Complete Freund's Adjuvant (CFA) or its emulsion can cause inflammation when injected subcutaneously to the animal. The CFA emulsion was injected to one dorsal side of the forepaw of the mouse and the other side was injected with PBS. After 24 h, Compound 9 was injected intravenously and scanned 2 h after injection. […] To further verify the specificity of the MPO Compound 9, the mice were treated with MPO inhibitor PF-1355 1 h after CFA emulsion injection and continuously every 6 h afterwards for 4 times before injecting the Compound 9. The control group was treated with vehicle after CFA injection. Then each pair of the mice from treated and untreated groups were scanned.

## O=C(CCCC[C@@H]1SC[C@@H]2NC(=O)N[C@@H]21)N[C@@H](Cc1c[nH]c2ccccc12)C(=O)NCCc1c[nH]c2ccccc12 [Compound 18, N—((S)-1-((2-(1H-indol-3-yl)ethyl)amino)-3-(1H-indol-3-yl)-1-oxopropan-2-yl)-5-((3aS,4S,6aR)-2-oxohexahydro-1H-thieno[3,4-d]imidazol-4-yl)pentanamide]
MPO activity
  Fluorescence intensity, PMA-treated hind-paw: 50.1±5.8 RFU
  Fluorescence intensity, vehicle-treated hind-paw: 28.4±5.5 RFU

## O=C(NC(Cc1c[nH]c2ccc(O)cc12)C(=O)NCCc1c[nH]c2ccc(O)cc12)c1ccc([18F])cc1 (centres unmarked) [Compound 7]
MPO [1]; matrigel MPO thigh vs control thigh
  PET signal of MPO side: low signal
MPO [1]
  Background, organ uptake and defluorination: high heart uptake

## COc1ccc(OC)c(-c2cc(=O)[nH]c(=S)n2CC(N)=O)c1 [PF-1355]
MPO [2]; mean of three pairs
  Ratio of PF-1355 treated to untreated: .410
MPO [2]; mean of three pairs, PF-1355 50 mg/kg by gavage, Compound 9 PET
  % Inhibition: 59%
MPO [2]; mean of three pairs, PF-1355 50 mg/kg by gavage
  Compound 9 uptake in inflamed paw, PF-1355 treated: .0622 SUV
MPO [2]; mouse pair 1, PF-1355 50 mg/kg by gavage
  Compound 9 uptake in inflamed paw, PF-1355 treated: .0555 SUV
MPO [2]; mouse pair 2, PF-1355 50 mg/kg by gavage
  Compound 9 uptake in inflamed paw, PF-1355 treated: .0736 SUV
MPO [2]; mouse pair 3, PF-1355 50 mg/kg by gavage
  Compound 9 uptake in inflamed paw, PF-1355 treated: .0575 SUV

## O=C(Cc1c[nH]c2ccc(O)cc12)NC(Cc1c[nH]c2ccc(O)cc12)C(=O)NCCCCCC[18F] (centres unmarked) [Compound 5]
MPO [1]
  Background, organ uptake and defluorination: high heart and liver uptake and high background were observed from defluorination
